From patent US20250313548A1 (Actio Biosciences, Inc., priority 2023, published 2025)

Biological target: human, KCNT1 (Homo sapiens (Human), UniProt Q5JUK3)
Assay: FLIPR Tl/K Flux Assay
Assay type: cell-based
Settings: HEK293 cells stably expressing human KCNT1; Tl+ flux stimulated with EC80 of agonist Loxapine
In short: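 Inhibition values come from a Hill-equation fit of % inhibition versus log concentration, using normalized fluorescence (Fmax/Fmin) over a 160 s read. The read followed stimulation with Tl+ plus EC80 agonist loxapine after 30 min compound pre-incubation at 25 °C. Cells were KCNT1-expressing HEK293, dye-loaded 1 h in pH 7.4 HEPES/HBSS with 5 mM probenecid.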

human, KCNT1, sequence (Q5JUK3 whole entry): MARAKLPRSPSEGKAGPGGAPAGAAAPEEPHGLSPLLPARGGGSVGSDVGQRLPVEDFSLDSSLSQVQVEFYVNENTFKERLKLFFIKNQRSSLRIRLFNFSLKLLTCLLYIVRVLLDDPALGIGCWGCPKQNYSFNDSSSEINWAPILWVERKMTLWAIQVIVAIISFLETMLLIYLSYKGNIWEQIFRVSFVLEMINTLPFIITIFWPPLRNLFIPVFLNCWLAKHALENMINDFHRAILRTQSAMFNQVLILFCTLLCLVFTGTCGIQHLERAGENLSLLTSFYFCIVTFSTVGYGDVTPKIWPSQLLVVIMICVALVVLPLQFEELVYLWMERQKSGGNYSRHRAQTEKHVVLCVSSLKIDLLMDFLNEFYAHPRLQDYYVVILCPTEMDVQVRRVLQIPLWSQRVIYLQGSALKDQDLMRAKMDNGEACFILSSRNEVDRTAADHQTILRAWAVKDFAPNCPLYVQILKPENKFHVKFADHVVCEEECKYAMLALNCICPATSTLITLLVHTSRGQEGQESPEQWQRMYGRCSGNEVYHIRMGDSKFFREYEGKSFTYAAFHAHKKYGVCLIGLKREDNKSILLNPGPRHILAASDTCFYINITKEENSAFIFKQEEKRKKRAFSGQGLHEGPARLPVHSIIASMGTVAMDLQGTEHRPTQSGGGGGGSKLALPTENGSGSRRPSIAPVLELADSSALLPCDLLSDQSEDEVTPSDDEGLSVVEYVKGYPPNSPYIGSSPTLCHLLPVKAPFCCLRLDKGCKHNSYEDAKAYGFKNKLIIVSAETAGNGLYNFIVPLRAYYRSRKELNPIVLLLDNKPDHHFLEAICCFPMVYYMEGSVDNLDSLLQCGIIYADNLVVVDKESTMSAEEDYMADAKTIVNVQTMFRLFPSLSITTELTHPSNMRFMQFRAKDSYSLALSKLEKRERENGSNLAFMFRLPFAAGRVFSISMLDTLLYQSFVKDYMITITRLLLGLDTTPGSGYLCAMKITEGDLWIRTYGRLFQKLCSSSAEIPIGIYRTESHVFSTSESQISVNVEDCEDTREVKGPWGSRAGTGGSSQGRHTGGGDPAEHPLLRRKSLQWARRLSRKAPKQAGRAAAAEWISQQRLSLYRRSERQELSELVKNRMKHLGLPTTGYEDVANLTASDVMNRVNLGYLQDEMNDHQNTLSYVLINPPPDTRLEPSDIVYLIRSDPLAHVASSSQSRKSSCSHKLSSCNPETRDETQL

IC50 [nM]	Structure (SMILES)
< 250	CC(F)(F)c1cc(-c2nc3c(o2)CCC[C@@H]3NC(=O)c2cncc(C(F)(F)F)c2)ccn1 [Compound I-533a, (S)—N-(2-(2-(1,1-Difluoroethyl)pyridin-4-yl)-4,5,6,7-tetrahydrobenzo[d]oxazol-4-yl)-5-(trifluoromethyl)nicotinamide]
< 250	O=C(N[C@H]1CCn2nc(-c3cc(C(F)(F)F)ncc3F)cc21)c1ccnc(OC(F)(F)F)c1 [Compound I-536a, (S)-N-(2-(5-Fluoro-2-(trifluoromethyl)pyridin-4-yl)-5,6-dihydro-4H-pyrrolo[1,2-b]pyrazol-4-yl)-2-(trifluoromethoxy)isonicotinamide]
< 250	Cn1nc(C(F)(F)F)cc1C(=O)N[C@H]1CCn2nc(-c3ccnc(C(C)(F)F)c3)cc21 [Compound I-537a, (S)-N-(2-(2-(1,1-Difluoroethyl)pyridin-4-yl)-5,6-dihydro-4H-pyrrolo[1,2-b]pyrazol-4-yl)-1-methyl-3-(trifluoromethyl)-1H-pyrazole-5-carboxamide]
< 250	CC(F)(F)c1cc(-c2cc3n(n2)CC[C@@H]3NC(=O)c2cnn(C(F)(F)F)c2)ccn1 [Compound I-538a, (S)-N-(2-(2-(1,1-Difluoroethyl)pyridin-4-yl)-5,6-dihydro-4H-pyrrolo[1,2-b]pyrazol-4-yl)-1-(trifluoromethyl)-1H-pyrazole-4-carboxamide]
< 250	O=C(N[C@H]1CCn2nc(-c3cc(C(F)(F)F)ncc3F)cc21)C12CC(CC(F)(F)F)(C1)C2 [Compound I-539a]
< 250	O=C(N[C@H]1CCn2nc(-c3cc(C(F)(F)F)ncc3F)cc21)C12CC(CF)(C1)C2 [Compound I-540a, (S)-N-(2-(5-Fluoro-2-(trifluoromethyl)pyridin-4-yl)-5,6-dihydro-4H-pyrrolo[1,2-b]pyrazol-4-yl)-3-(fluoromethyl)bicyclo[1.1.1]pentane-1-carboxamide]
< 250	CCOc1cc(C(=O)N[C@H]2CCn3nc(-c4ccnc(C5CC5)c4)cc32)ccn1 [Compound I-541a, (S)-N-(2-(2-Cyclopropylpyridin-4-yl)-5,6-dihydro-4H-pyrrolo[1,2-b]pyrazol-4-yl)-2-ethoxyisonicotinamide]
< 250	CC(C)Oc1cc(C(=O)N[C@H]2CCn3nc(-c4ccnc(C5CC5)c4)cc32)ccn1 [Compound I-542a, (S)-N-(2-(2-Cyclopropylpyridin-4-yl)-5,6-dihydro-4H-pyrrolo[1,2-b]pyrazol-4-yl)-2-isopropoxyisonicotinamide]
< 250	O=C(N[C@H]1CCn2nc(-c3ccnc(C4CC4)c3)cc21)c1ccnc(OC(F)(F)F)c1 [Compound I-543a, (S)-N-(2-(2-Cyclopropylpyridin-4-yl)-5,6-dihydro-4H-pyrrolo[1,2-b]pyrazol-4-yl)-2-(trifluoromethoxy)isonicotinamide]
< 250	CC(F)(F)c1cc(-c2nc3c(o2)CCC[C@@H]3NC(=O)c2cncc(F)c2)ccn1 [Compound I-544a, (S)—N-(2-(2-(1,1-difluoroethyl)pyridin-4-yl)-4,5,6,7-tetrahydrobenzo[d]oxazol-4-yl)-5-fluoronicotinamide]
< 250	CC(F)(F)c1cc(-c2nc3c(o2)CCC[C@@H]3NC(=O)c2cn(C(F)(F)F)nc2C(F)(F)F)ccn1 [Compound I-545a, (S)—N-(2-(2-(1,1-difluoroethyl)pyridin-4-yl)-4,5,6,7-tetrahydrobenzo[d]oxazol-4-yl)-1,3-bis(trifluoromethyl)-1H-pyrazole-4-carboxamide]
< 250	CC(C)Oc1cc(C(=O)N[C@H]2CCn3nc(-c4cc(C(F)(F)F)ncc4F)cc32)ccn1 [Compound I-546a, (S)-N-(2-(5-Fluoro-2-(trifluoromethyl)pyridin-4-yl)-5,6-dihydro-4H-pyrrolo[1,2-b]pyrazol-4-yl)-2-isopropoxyisonicotinamide]
< 250	O=C(N[C@H]1CCn2nc(-c3cc(C(F)(F)F)ncc3F)cc21)c1ccnc(OC(F)F)c1 [Compound I-547a, (S)-2-(Difluoromethoxy)-N-(2-(5-fluoro-2-(trifluoromethyl)pyridin-4-yl)-5,6-dihydro-4H-pyrrolo[1,2-b]pyrazol-4-yl)isonicotinamide]
< 250	Cn1nc(C(F)(F)F)nc1C(=O)N[C@H]1CCn2nc(-c3cc(C(F)(F)F)ncc3F)cc21 [Compound I-548a, (S)—N-(2-(5-Fluoro-2-(trifluoromethyl)pyridin-4-yl)-5,6-dihydro-4H-pyrrolo[1,2-b]pyrazol-4-yl)-1-methyl-3-(trifluoromethyl)-1H-1,2,4-triazole-5-carboxamide]
< 250	O=C(N[C@H]1CCn2nc(-c3cc(C(F)(F)F)ncc3F)cc21)c1ccn2nccc2c1 [Compound I-549a]
< 250	O=C(N[C@H]1CCn2nc(-c3ccnc(C(F)(F)F)c3)cc21)c1ccn2nccc2c1 [Compound I-550a, (S)-N-(2-(2-(Trifluoromethyl)pyridin-4-yl)-5,6-dihydro-4H-pyrrolo[1,2-b]pyrazol-4-yl)pyrazolo[1,5-a]pyridine-5-carboxamide]

IC50 [nM]	Structure (SMILES)
< 250	Cn1nc(C(F)(F)F)nc1C(=O)N[C@H]1CCCn2nc(-c3ccnc(C(C)(F)F)c3)cc21 [Compound I-551a, (S)-N-(2-(2-(1,1-Difluoroethyl)pyridin-4-yl)-4,5,6,7-tetrahydropyrazolo[1,5-a]pyridin-4-yl)-1-methyl-3-(trifluoromethyl)-1H-1,2,4-triazole-5-carboxamide]
< 250	O=C(N[C@H]1CCn2nc(-c3cc(C(F)(F)F)ncc3F)cc21)C12CC(F)(C1)C2 [Compound I-552a, (S)-3-Fluoro-N-(2-(5-fluoro-2-(trifluoromethyl)pyridin-4-yl)-5,6-dihydro-4H-pyrrolo[1,2-b]pyrazol-4-yl)bicyclo[1.1.1]pentane-1-carboxamide]
< 250	O=C(N[C@H]1CCc2nn(-c3ccnc(C(F)(F)F)c3)cc21)C12CC(C(F)(F)F)(C1)C2 [Compound I-553a, (S)-3-(Trifluoromethyl)-N-(2-(2-(trifluoromethyl)pyridin-4-yl)-2,4,5,6-tetrahydrocyclopenta[c]pyrazol-4-yl)bicyclo[1.1.1]pentane-1-carboxamide]
< 250	O=C(N[C@H]1CCCc2oc(-c3cc(C(F)(F)F)ncc3F)nc21)c1cccc(C(F)(F)F)c1 [Compound I-554a, (S)—N-(2-(5-Fluoro-2-(trifluoromethyl)pyridin-4-yl)-4,5,6,7-tetrahydrobenzo[d]oxazol-4-yl)-3-(trifluoromethyl)benzamide]
< 250	Cc1nn(C(F)(F)F)cc1C(=O)N[C@H]1CCn2nc(-c3ccnc(C4CC4)c3)cc21 [Compound I-555a, (S)-N-(2-(2-Cyclopropylpyridin-4-yl)-5,6-dihydro-4H-pyrrolo[1,2-b]pyrazol-4-yl)-3-methyl-1-(trifluoromethyl)-1H-pyrazole-4-carboxamide]
< 250	Cc1nn(C(F)(F)F)cc1C(=O)N[C@H]1CCn2nc(-c3ccnc(C(F)(F)F)c3)cc21 [Compound I-556a]
< 250	Cc1nn(C(F)(F)F)cc1C(=O)N[C@H]1CCCc2oc(-c3ccnc(C(F)(F)F)c3)nc21 [Compound I-557a, (S)-3-Methyl-1-(trifluoromethyl)-N-(2-(2-(trifluoromethyl)pyridin-4-yl)-4,5,6,7-tetrahydrobenzo[d]oxazol-4-yl)-1H-pyrazole-4-carboxamide]
< 250	O=C(N[C@H]1CCn2nc(-c3cc(C(F)(F)F)ncc3F)cc21)C12CC(CC(F)F)(C1)C2 [Compound I-558a, (S)-3-(2,2-Difluoroethyl)-N-(2-(5-fluoro-2-(trifluoromethyl)pyridin-4-yl)-5,6-dihydro-4H-pyrrolo[1,2-b]pyrazol-4-yl)bicyclo[1.1.1]pentane-1-carboxamide]
< 250	O=C(N[C@H]1CCn2nc(-c3cc(C4CC4)ncc3F)cc21)C12CC(C(F)(F)F)(C1)C2 [Compound I-559a, (S)-N-(2-(2-Cyclopropyl-5-fluoropyridin-4-yl)-5,6-dihydro-4H-pyrrolo[1,2-b]pyrazol-4-yl)-3-(trifluoromethyl)bicyclo[1.1.1]pentane-1-carboxamide]
< 250	COc1cc(C(=O)N[C@H]2CCn3nc(-c4cc(OC)ncc4F)cc32)ccn1 [Compound I-560a, (S)-N-(2-(5-Fluoro-2-methoxypyridin-4-yl)-5,6-dihydro-4H-pyrrolo[1,2-b]pyrazol-4-yl)-2-methoxyisonicotinamide]
< 250	COc1cc(F)cc(C(=O)N[C@H]2CCc3nn(-c4ccnc(C(F)(F)F)c4)cc32)c1 [Compound I-561a, (S)-3-Fluoro-5-methoxy-N-(2-(2-(trifluoromethyl)pyridin-4-yl)-2,4,5,6-tetrahydrocyclopenta[c]pyrazol-4-yl)benzamide]
< 250	O=C(N[C@H]1CCc2nn(-c3ccnc(C(F)(F)F)c3)cc21)c1cc(F)cc(C2CC2)c1 [Compound I-562a, (S)-3-Cyclopropyl-5-fluoro-N-(2-(2-(trifluoromethyl)pyridin-4-yl)-2,4,5,6-tetrahydrocyclopenta[c]pyrazol-4-yl)benzamide]
< 250	CC(C)(O)c1cc(F)cc(C(=O)N[C@H]2CCc3nn(-c4ccnc(C(F)(F)F)c4)cc32)c1 [Compound I-563a, (S)-3-Fluoro-5-(2-hydroxypropan-2-yl)-N-(2-(2-(trifluoromethyl)pyridin-4-yl)-2,4,5,6-tetrahydrocyclopenta[c]pyrazol-4-yl)benzamide]
< 250	O=C(N[C@H]1CCc2nn(-c3ccnc(C(F)(F)F)c3)cc21)c1cnc(C(F)(F)F)cn1 [Compound I-564a, (S)-5-(Trifluoromethyl)-N-(2-(2-(trifluoromethyl)pyridin-4-yl)-2,4,5,6-tetrahydrocyclopenta[c]pyrazol-4-yl)pyrazine-2-carboxamide]
< 250	O=C(N[C@H]1CCc2nn(-c3ccnc(C(F)(F)F)c3)cc21)c1cncc(C(F)(F)F)n1 [Compound I-565a, (S)-6-(Trifluoromethyl)-N-(2-(2-(trifluoromethyl)pyridin-4-yl)-2,4,5,6-tetrahydrocyclopenta[c]pyrazol-4-yl)pyrazine-2-carboxamide]
